# ChEMBL document CHEMBL3232913, “Structural basis for the identification of the N-terminal domain of coronavirus nucleocapsid protein as an antiviral target” (2014)
# Calls of active or inactive are those of the source. The rule behind the calls is not given here.
# Tests used:
# [1] = molecular target: T1, Nucleoprotein (Human coronavirus OC43) (UniProt P33469); test: Inhibition of human coronavirus OC43 nucleocapsid protein expressed in Escherichia coli BL21(DE3) assessed as reduction of RNA-binding capacity by surface plasmon resonance analysis relative to control; settings: concentration not given here
# T1 sequence (whole entry): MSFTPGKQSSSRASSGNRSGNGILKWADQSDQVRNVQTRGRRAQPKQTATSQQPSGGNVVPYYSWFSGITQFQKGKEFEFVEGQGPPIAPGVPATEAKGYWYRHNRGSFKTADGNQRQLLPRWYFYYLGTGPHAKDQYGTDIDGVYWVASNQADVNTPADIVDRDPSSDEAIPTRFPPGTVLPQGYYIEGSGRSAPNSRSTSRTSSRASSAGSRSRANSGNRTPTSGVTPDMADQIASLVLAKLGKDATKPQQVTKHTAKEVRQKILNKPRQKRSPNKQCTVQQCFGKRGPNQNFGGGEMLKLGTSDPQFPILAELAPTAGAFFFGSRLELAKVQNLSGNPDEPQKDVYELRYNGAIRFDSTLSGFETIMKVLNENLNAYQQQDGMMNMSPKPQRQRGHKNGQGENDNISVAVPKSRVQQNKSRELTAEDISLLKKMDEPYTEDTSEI
# Human coronavirus OC43 [2] = test: Inhibition of Human coronavirus OC43 replication infected in human 293T cells transfected with wild-type HCoV-OC43 N protein assessed as M mRNA level at 10 uM by RT-PCR analysis (reference value: 2.41 no unit); type: functional
# Human coronavirus OC43 [3] = test: Inhibition of Human coronavirus OC43 replication infected in human 293T cells assessed as M mRNA level at 10 uM by RT-PCR analysis (reference value: 0.32 no unit); type: functional
# [4] = molecular target: T1, Nucleoprotein (Human coronavirus OC43); settings: 10 uM
# Description: Inhibition of human coronavirus OC43 nucleocapsid protein expressed in Escherichia coli BL21(DE3) assessed as reduction of RNA-binding capacity by measuring resonance unit at 10 uM by surface plasmon resonance analysis relative to control
structure (smiles),measurement,setting,value
CN(C)CC(=O)Nc1ccc2[nH]c(=O)c3ccccc3c2c1.Cl [PJ34],inhibition,[1],> 10%
same,fold change (FC),Human coronavirus OC43 [2],0.65
same,fold change (FC),Human coronavirus OC43 [3],0.11
same,inhibition,[4],Active
O=C1C(Cl)=C(NCCN2CCOCC2)C(=O)c2ncccc21,inhibition,[1],> 10%
same,fold change (FC),Human coronavirus OC43 [2],2.46
same,fold change (FC),Human coronavirus OC43 [3],0.22
